According to PubChem BioAssay (NCI):
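Method: 48-hour compound exposure of cells in 96-well plates, five concentrations, linear interpolation of endpoints. GI50 marks 50% less growth. TGI denotes the concentration required for complete inhibition of growth.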

Experiments:
Test in all cases: NCI anticancer screen, dose series, 48 h
LOX IMVI melanoma = tested on: LOX IMVI melanoma
UACC-257 melanoma = tested on: UACC-257 melanoma
SW-620 colon = tested on: SW-620 colon
HT29 colon = tested on: HT29 colon
A549 NSCLC = tested on: A549 NSCLC
OVCAR-8 ovarian = tested on: OVCAR-8 ovarian
NCI-H460 lung = tested on: NCI-H460 lung
HCT-116 colon = tested on: HCT-116 colon
A498 renal = tested on: A498 renal
UO-31 renal = tested on: UO-31 renal
HCC-2998 colon = tested on: HCC-2998 colon
SNB-19 CNS = tested on: SNB-19 CNS
COLO 205 colon = tested on: COLO 205 colon
HL-60(TB) leukemia = tested on: HL-60(TB) leukemia
M14 melanoma = tested on: M14 melanoma
IGROV1 ovarian = tested on: IGROV1 ovarian
MCF7 breast = tested on: MCF7 breast
HS 578T breast = tested on: HS 578T breast
SF-539 CNS = tested on: SF-539 CNS
OVCAR-3 ovarian = tested on: OVCAR-3 ovarian
SNB-75 CNS = tested on: SNB-75 CNS
MDA-MB-231 breast = tested on: MDA-MB-231 breast
NCI-H522 lung = tested on: NCI-H522 lung
CCRF-CEM leukemia = tested on: CCRF-CEM leukemia
HCT-15 colon = tested on: HCT-15 colon
T-47D breast = tested on: T-47D breast
786-0 renal = tested on: 786-0 renal
PC-3 prostate = tested on: PC-3 prostate
OVCAR-5 ovarian = tested on: OVCAR-5 ovarian
TK-10 renal = tested on: TK-10 renal
BT-549 breast = tested on: BT-549 breast
RPMI-8226 leukemia = tested on: RPMI-8226 leukemia
CAKI-1 renal = tested on: CAKI-1 renal
SF-295 CNS = tested on: SF-295 CNS
OVCAR-4 ovarian = tested on: OVCAR-4 ovarian
SK-MEL-2 melanoma = tested on: SK-MEL-2 melanoma
SR leukemia = tested on: SR leukemia
SK-MEL-28 melanoma = tested on: SK-MEL-28 melanoma
HOP-62 NSCLC = tested on: HOP-62 NSCLC
U251 CNS = tested on: U251 CNS
NCI-H226 lung = tested on: NCI-H226 lung
RXF 393 renal = tested on: RXF 393 renal
SK-OV-3 ovarian = tested on: SK-OV-3 ovarian
SN12C renal = tested on: SN12C renal
UACC-62 melanoma = tested on: UACC-62 melanoma
SF-268 CNS = tested on: SF-268 CNS
KM12 colon = tested on: KM12 colon
DU-145 prostate = tested on: DU-145 prostate
MDA-MB-435 = tested on: MDA-MB-435
NCI-H23 lung = tested on: NCI-H23 lung
NCI/ADR-RES ovarian = tested on: NCI/ADR-RES ovarian
SK-MEL-5 melanoma = tested on: SK-MEL-5 melanoma
HOP-92 NSCLC = tested on: HOP-92 NSCLC
K-562 leukemia = tested on: K-562 leukemia
MALME-3M melanoma = tested on: MALME-3M melanoma
ACHN renal = tested on: ACHN renal
EKVX NSCLC = tested on: EKVX NSCLC
MOLT-4 leukemia = tested on: MOLT-4 leukemia

## COC(=O)c1ccc(NC(=O)Oc2ccc(N(CCCl)CCCl)cc2)cc1
LOX IMVI melanoma
  GI50: 3.69 µM
  TGI: > 100 µM
UACC-257 melanoma
  GI50: 7.73 µM
  TGI: 99.7 µM
SW-620 colon
  GI50: 4.89 µM
  TGI: > 100 µM
HT29 colon
  GI50: 16.5 µM
  TGI: > 100 µM
A549 NSCLC
  GI50: 1.65 µM
  TGI: > 100 µM
OVCAR-8 ovarian
  GI50: 4.34 µM
  TGI: 84.6 µM
NCI-H460 lung
  GI50: 0.386 µM
  TGI: 14.9 µM
HCT-116 colon
  GI50: 11.2 µM
  TGI: > 100 µM
A498 renal
  GI50: 3.35 µM
  TGI: 14.9 µM
UO-31 renal
  GI50: 4.86 µM
  TGI: 29.7 µM
HCC-2998 colon
  GI50: 29.1 µM
  TGI: > 100 µM
SNB-19 CNS
  GI50: 5.17 µM
  TGI: > 100 µM
COLO 205 colon
  GI50: 9.88 µM
  TGI: > 100 µM
HL-60(TB) leukemia
  GI50: 0.867 µM
  TGI: 11.6 µM
M14 melanoma
  GI50: 5.97 µM
  TGI: > 100 µM
IGROV1 ovarian
  GI50: 11.8 µM
  TGI: 59.8 µM
MCF7 breast
  GI50: 1.6 µM
  TGI: > 100 µM
HS 578T breast
  GI50: 18.8 µM
  TGI: 97.9 µM
SF-539 CNS
  GI50: 2.92 µM
  TGI: 18.9 µM
OVCAR-3 ovarian
  GI50: 7.77 µM
  TGI: 22.3 µM
SNB-75 CNS
  GI50: 6.16 µM
  TGI: 54.5 µM
MDA-MB-231 breast
  GI50: 20.1 µM
  TGI: > 100 µM
NCI-H522 lung
  GI50: 3.47 µM
  TGI: 16.3 µM
CCRF-CEM leukemia
  GI50: 0.782 µM
  TGI: > 100 µM
HCT-15 colon
  GI50: 11.2 µM
  TGI: > 100 µM
T-47D breast
  GI50: 2.87 µM
  TGI: 50.8 µM
786-0 renal
  GI50: 4.95 µM
  TGI: 25.6 µM
PC-3 prostate
  GI50: 11.4 µM
  TGI: > 100 µM
OVCAR-5 ovarian
  GI50: 30.8 µM
  TGI: > 100 µM
TK-10 renal
  GI50: 21.6 µM
  TGI: 58.9 µM
BT-549 breast
  GI50: 10.2 µM
  TGI: > 100 µM
RPMI-8226 leukemia
  GI50: 6.5 µM
  TGI: > 100 µM
CAKI-1 renal
  GI50: 0.434 µM
  TGI: 7.36 µM
SF-295 CNS
  GI50: 1.38 µM
  TGI: 11.4 µM
OVCAR-4 ovarian
  GI50: 13.8 µM
  TGI: 38.2 µM
SK-MEL-2 melanoma
  GI50: 20 µM
  TGI: 52.5 µM
SR leukemia
  GI50: 0.394 µM
  TGI: > 100 µM
SK-MEL-28 melanoma
  GI50: 30.7 µM
  TGI: > 100 µM
HOP-62 NSCLC
  GI50: 3.99 µM
  TGI: 24.8 µM
U251 CNS
  GI50: 3.09 µM
  TGI: 41.4 µM
NCI-H226 lung
  GI50: 12.1 µM
  TGI: 50.6 µM
RXF 393 renal
  GI50: 6.28 µM
  TGI: 32.3 µM
SK-OV-3 ovarian
  GI50: 4.41 µM
  TGI: 29.5 µM
SN12C renal
  GI50: 2.97 µM
  TGI: 94.1 µM
UACC-62 melanoma
  GI50: 3.36 µM
  TGI: 23.5 µM
SF-268 CNS
  GI50: 1.94 µM
  TGI: 18.5 µM
KM12 colon
  GI50: 24.4 µM
  TGI: > 100 µM
DU-145 prostate
  GI50: 3.6 µM
  TGI: 19.9 µM
MDA-MB-435
  GI50: 11.5 µM
  TGI: > 100 µM
NCI-H23 lung
  GI50: 4.75 µM
  TGI: > 100 µM
NCI/ADR-RES ovarian
  GI50: 6.54 µM
  TGI: 53.8 µM
SK-MEL-5 melanoma
  GI50: 13.1 µM
  TGI: > 100 µM
HOP-92 NSCLC
  GI50: 14.3 µM
  TGI: 53.4 µM
K-562 leukemia
  GI50: 4.85 µM
  TGI: > 100 µM
MALME-3M melanoma
  GI50: 18.4 µM
  TGI: 71.1 µM
ACHN renal
  GI50: 1.4 µM
  TGI: 16.4 µM

## Cc1cc(Cl)nc(N(CCCNc2ccnc3cc(Cl)ccc23)Cc2ccco2)n1
LOX IMVI melanoma
  GI50: 2.07 µM
  TGI: 5.4 µM
UACC-257 melanoma
  GI50: 2.21 µM
  TGI: 5.76 µM
SW-620 colon
  GI50: 2.5 µM
  TGI: 10.3 µM
HT29 colon
  GI50: 1.38 µM
  TGI: 6.46 µM
A549 NSCLC
  GI50: 3.28 µM
  TGI: 13.9 µM
OVCAR-8 ovarian
  GI50: 2.05 µM
  TGI: 6.31 µM
NCI-H460 lung
  GI50: 2.04 µM
  TGI: 6.2 µM
HCT-116 colon
  GI50: 1.42 µM
  TGI: 4.17 µM
A498 renal
  GI50: 1.55 µM
  TGI: 7.99 µM
UO-31 renal
  GI50: 1.08 µM
  TGI: 5.93 µM
HCC-2998 colon
  GI50: 1.97 µM
  TGI: 5.67 µM
SNB-19 CNS
  GI50: 3.46 µM
  TGI: 14.7 µM
COLO 205 colon
  GI50: 1.43 µM
  TGI: 3.08 µM
HL-60(TB) leukemia
  GI50: 2.05 µM
  TGI: 5.14 µM
M14 melanoma
  GI50: 1.88 µM
  TGI: 4.08 µM
IGROV1 ovarian
  GI50: 1.92 µM
  TGI: 8.26 µM
MCF7 breast
  GI50: 1.81 µM
  TGI: 6.1 µM
HS 578T breast
  GI50: 2.13 µM
  TGI: 8.1 µM
SF-539 CNS
  GI50: 2.33 µM
  TGI: 6.38 µM
OVCAR-3 ovarian
  GI50: 2.48 µM
  TGI: 10.3 µM
SNB-75 CNS
  GI50: 2.13 µM
  TGI: 11.2 µM
EKVX NSCLC
  GI50: 2.18 µM
  TGI: 7.73 µM
MDA-MB-231 breast
  GI50: 2.13 µM
  TGI: 5.93 µM
NCI-H522 lung
  GI50: 2.93 µM
  TGI: 12.4 µM
CCRF-CEM leukemia
  GI50: 2.32 µM
  TGI: 8.93 µM
HCT-15 colon
  GI50: 1.99 µM
  TGI: 7.61 µM
T-47D breast
  GI50: 1.73 µM
  TGI: 6.43 µM
786-0 renal
  GI50: 1.91 µM
  TGI: 4.61 µM
PC-3 prostate
  GI50: 1.87 µM
  TGI: 6 µM
OVCAR-5 ovarian
  GI50: 3.12 µM
  TGI: 22.6 µM
TK-10 renal
  GI50: 2.7 µM
  TGI: 11.1 µM
BT-549 breast
  GI50: 2.16 µM
  TGI: 6.47 µM
RPMI-8226 leukemia
  GI50: 1.04 µM
  TGI: 3.19 µM
SF-295 CNS
  GI50: 1.28 µM
  TGI: 2.81 µM
OVCAR-4 ovarian
  GI50: 2.31 µM
  TGI: 12.2 µM
SK-MEL-2 melanoma
  GI50: 2.82 µM
  TGI: 9.19 µM
SR leukemia
  GI50: 1.65 µM
  TGI: 4.49 µM
SK-MEL-28 melanoma
  GI50: 2.38 µM
  TGI: 6.37 µM
HOP-62 NSCLC
  GI50: 1.59 µM
  TGI: 5.65 µM
U251 CNS
  GI50: 2.07 µM
  TGI: 6.15 µM
MOLT-4 leukemia
  GI50: 1.93 µM
  TGI: 6.46 µM
NCI-H226 lung
  GI50: 1.3 µM
  TGI: 6.91 µM
RXF 393 renal
  GI50: 1.41 µM
  TGI: 4.55 µM
SK-OV-3 ovarian
  GI50: 2.45 µM
  TGI: 8.22 µM
SN12C renal
  GI50: 2.45 µM
  TGI: 9.87 µM
UACC-62 melanoma
  GI50: 2.32 µM
  TGI: 6.8 µM
SF-268 CNS
  GI50: 3.83 µM
  TGI: 31.1 µM
KM12 colon
  GI50: 2.79 µM
  TGI: 11.5 µM
DU-145 prostate
  GI50: 3.48 µM
  TGI: 14.7 µM
MDA-MB-435
  GI50: 2.31 µM
  TGI: 7.17 µM
NCI-H23 lung
  GI50: 1.98 µM
  TGI: 7.68 µM
NCI/ADR-RES ovarian
  GI50: 1.76 µM
  TGI: 6.87 µM
SK-MEL-5 melanoma
  GI50: 1.54 µM
  TGI: 3.01 µM
HOP-92 NSCLC
  GI50: 0.779 µM
  TGI: 4.19 µM
K-562 leukemia
  GI50: 1.4 µM
  TGI: 5.86 µM
MALME-3M melanoma
  GI50: 2.21 µM
  TGI: 5.58 µM
ACHN renal
  GI50: 3 µM
  TGI: 12 µM
